According to the supplement of paper PMC11451515:

Key:
Conditions in all cases: 48 h
NOMO1 [1] = test: cell viability relative to DMSO control; higher = less cytotoxic
Summary of the method: (§1)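 Before seeding, each leukemia line was adapted for at least four passages in each medium. NOMO1 or SEM cells (500 cells/well) and P12-Ichikawa cells (1000 cells/well) went into 1536-well plates at 5 μl, then received library compounds in DMSO by pin dosing across 11 threefold concentrations, 47 μM to 0.79 nM. Readout was CellTiter-Glo One luminescence after 48 h at 37°C, and viability is given as a per-plate percentage of DMSO wells, with cell-free wells as background.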

P12-Ichikawa [2] = test: as above
Summary of the method: as §1

SEM cells [3] = test: as above
Summary of the method: as §1

NOMO1 [4] = test: AUC of viability dose-response curve (% viability x log10 dose units); higher = less sensitive
Summary of the method: (§2)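 Viability of medium-adapted leukemia cells was measured by CellTiter-Glo One luminescence after 48 h at 37°C with library compounds in DMSO. Doses were 11 threefold steps from 47 μM to 0.79 nM, in 1536-well plates at 500 or 1000 cells/well. Signals were normalised per plate to DMSO and cell-free wells and fitted with a four-parameter log-logistic model on log10 dose. Area under the curve was integrated by trapezoidal rule, with curves exceeding full viability scaled and failed quality-control curves removed.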

P12-Ichikawa [5] = test: as above
Summary of the method: as §2

SEM cells [6] = test: as above
Summary of the method: as §2

NC(=O)c1ncn([C@@H]2O[C@H](CO)[C@@H](O)[C@H]2O)c1N
Conditions | cell viability [%]
NOMO1 [1], HPLM + 10% dialyzed FBS, 0.000781 µM | 127
NOMO1 [1], HPLM + 10% dialyzed FBS, 0.00234 µM | 111
NOMO1 [1], HPLM + 10% dialyzed FBS, 0.00702 µM | 96
NOMO1 [1], HPLM + 10% dialyzed FBS, 0.0211 µM | 136
NOMO1 [1], HPLM + 10% dialyzed FBS, 0.0632 µM | 111
NOMO1 [1], HPLM + 10% dialyzed FBS, 0.19 µM | 121
NOMO1 [1], HPLM + 10% dialyzed FBS, 0.569 µM | 123
NOMO1 [1], HPLM + 10% dialyzed FBS, 1.71 µM | 123
NOMO1 [1], HPLM + 10% dialyzed FBS, 5.12 µM | 126
NOMO1 [1], HPLM + 10% dialyzed FBS, 15.4 µM | 115
NOMO1 [1], HPLM + 10% dialyzed FBS, 46.1 µM | 83
P12-Ichikawa [2], HPLM + 10% dialyzed FBS, 0.000781 µM | 120
P12-Ichikawa [2], HPLM + 10% dialyzed FBS, 0.00234 µM | 124
P12-Ichikawa [2], HPLM + 10% dialyzed FBS, 0.00702 µM | 120
P12-Ichikawa [2], HPLM + 10% dialyzed FBS, 0.0211 µM | 119
P12-Ichikawa [2], HPLM + 10% dialyzed FBS, 0.0632 µM | 122
P12-Ichikawa [2], HPLM + 10% dialyzed FBS, 0.19 µM | 121
P12-Ichikawa [2], HPLM + 10% dialyzed FBS, 0.569 µM | 122
P12-Ichikawa [2], HPLM + 10% dialyzed FBS, 1.71 µM | 117
P12-Ichikawa [2], HPLM + 10% dialyzed FBS, 5.12 µM | 115
P12-Ichikawa [2], HPLM + 10% dialyzed FBS, 15.4 µM | 115
P12-Ichikawa [2], HPLM + 10% dialyzed FBS, 46.1 µM | 104
SEM cells [3], RPMI 5 mM glucose + 10% FBS, 0.000781 µM | 81.8
SEM cells [3], RPMI 5 mM glucose + 10% FBS, 0.00234 µM | 95.1
SEM cells [3], RPMI 5 mM glucose + 10% FBS, 0.00702 µM | 89.9
SEM cells [3], RPMI 5 mM glucose + 10% FBS, 0.0211 µM | 72.7
SEM cells [3], RPMI 5 mM glucose + 10% FBS, 0.0632 µM | 95
SEM cells [3], RPMI 5 mM glucose + 10% FBS, 0.19 µM | 83.1
SEM cells [3], RPMI 5 mM glucose + 10% FBS, 0.569 µM | 91.7
SEM cells [3], RPMI 5 mM glucose + 10% FBS, 1.71 µM | 68
SEM cells [3], RPMI 5 mM glucose + 10% FBS, 5.12 µM | 66.6
SEM cells [3], RPMI 5 mM glucose + 10% FBS, 15.4 µM | 69.7
SEM cells [3], RPMI 5 mM glucose + 10% FBS, 46.1 µM | 18.9
SEM cells [3], RPMI 5 mM glucose + 10% dialyzed FBS, 0.000781 µM | 120
SEM cells [3], RPMI 5 mM glucose + 10% dialyzed FBS, 0.00234 µM | 113
SEM cells [3], RPMI 5 mM glucose + 10% dialyzed FBS, 0.00702 µM | 116
SEM cells [3], RPMI 5 mM glucose + 10% dialyzed FBS, 0.0211 µM | 120
SEM cells [3], RPMI 5 mM glucose + 10% dialyzed FBS, 0.0632 µM | 136
SEM cells [3], RPMI 5 mM glucose + 10% dialyzed FBS, 0.19 µM | 109
SEM cells [3], RPMI 5 mM glucose + 10% dialyzed FBS, 0.569 µM | 121
SEM cells [3], RPMI 5 mM glucose + 10% dialyzed FBS, 1.71 µM | 115
SEM cells [3], RPMI 5 mM glucose + 10% dialyzed FBS, 5.12 µM | 122
SEM cells [3], RPMI 5 mM glucose + 10% dialyzed FBS, 15.4 µM | 114
SEM cells [3], RPMI 5 mM glucose + 10% dialyzed FBS, 46.1 µM | 31.5

AUC of viability dose-response curve
Conditions | NOMO1 [4] | P12-Ichikawa [5] | SEM cells [6]
HPLM + 10% dialyzed FBS | 468 | 467 | 443
RPMI 5 mM glucose + 10% FBS | 469 | 447 | 372
RPMI 5 mM glucose + 10% dialyzed FBS | 465 | 455 | 458

C[C@]12CCC(=O)C(O)=C1CC[C@@H]1[C@@H]2CC[C@]2(C)C(=O)CC[C@@H]12
cell viability [%]
Conditions | NOMO1 [1] | P12-Ichikawa [2] | SEM cells [3]
HPLM + 10% dialyzed FBS, 0.000781 µM | – | 122 | 98.8
HPLM + 10% dialyzed FBS, 0.00234 µM | – | 125 | 113
HPLM + 10% dialyzed FBS, 0.00702 µM | – | 122 | 110
HPLM + 10% dialyzed FBS, 0.0211 µM | – | 119 | 114
HPLM + 10% dialyzed FBS, 0.0632 µM | – | 119 | 120
HPLM + 10% dialyzed FBS, 0.19 µM | – | 122 | 117
HPLM + 10% dialyzed FBS, 0.569 µM | – | 128 | 113
HPLM + 10% dialyzed FBS, 1.71 µM | – | 117 | 121
HPLM + 10% dialyzed FBS, 5.12 µM | – | 120 | 108
HPLM + 10% dialyzed FBS, 15.4 µM | – | 111 | 101
HPLM + 10% dialyzed FBS, 46.1 µM | – | 104 | 104
RPMI 5 mM glucose + 10% FBS, 0.000781 µM | 123 | – | 98.2
RPMI 5 mM glucose + 10% FBS, 0.00234 µM | 114 | – | 128
RPMI 5 mM glucose + 10% FBS, 0.00702 µM | 105 | – | 123
RPMI 5 mM glucose + 10% FBS, 0.0211 µM | 123 | – | 106
RPMI 5 mM glucose + 10% FBS, 0.0632 µM | 129 | – | 122
RPMI 5 mM glucose + 10% FBS, 0.19 µM | 110 | – | 116
RPMI 5 mM glucose + 10% FBS, 0.569 µM | 128 | – | 127
RPMI 5 mM glucose + 10% FBS, 1.71 µM | 104 | – | 111
RPMI 5 mM glucose + 10% FBS, 5.12 µM | 107 | – | 103
RPMI 5 mM glucose + 10% FBS, 15.4 µM | 98.9 | – | 114
RPMI 5 mM glucose + 10% FBS, 46.1 µM | 95 | – | 112
RPMI 5 mM glucose + 10% dialyzed FBS, 0.000781 µM | – | 112 | 119
RPMI 5 mM glucose + 10% dialyzed FBS, 0.00234 µM | – | 124 | 120
RPMI 5 mM glucose + 10% dialyzed FBS, 0.00702 µM | – | 132 | 120
RPMI 5 mM glucose + 10% dialyzed FBS, 0.0211 µM | – | 121 | 130
RPMI 5 mM glucose + 10% dialyzed FBS, 0.0632 µM | – | 121 | 107
RPMI 5 mM glucose + 10% dialyzed FBS, 0.19 µM | – | 115 | 112
RPMI 5 mM glucose + 10% dialyzed FBS, 0.569 µM | – | 130 | 121
RPMI 5 mM glucose + 10% dialyzed FBS, 1.71 µM | – | 126 | 123
RPMI 5 mM glucose + 10% dialyzed FBS, 5.12 µM | – | 101 | 107
RPMI 5 mM glucose + 10% dialyzed FBS, 15.4 µM | – | 108 | 116
RPMI 5 mM glucose + 10% dialyzed FBS, 46.1 µM | – | 104 | 111

AUC of viability dose-response curve
Conditions | NOMO1 [4] | P12-Ichikawa [5] | SEM cells [6]
HPLM + 10% dialyzed FBS | 467 | 468 | 473
RPMI 5 mM glucose + 10% FBS | 454 | 455 | 471
RPMI 5 mM glucose + 10% dialyzed FBS | 462 | 459 | 460
